Tested on: p-STAT5
Test: PD marker p-STAT5 by IHC in spleen and bone marrow
Format: in vivo, mouse
Settings: Compound A 60 mg/kg single agent or with Compound B 8 mg/kg
Protocol: The p-STAT5 PD marker of Compound A and Acetylated Histone H3 PD marker of Compound B were assessed in spleen and bone marrow. Briefly, the spleen was removed in total, weighed and placed on a dissection tray. The spleen was cut transverse in two halves and two equal pieces were taken from the middle parts using a scalpel. Spleen pieces were not allowed to exceed 3-4 mm in thickness. Spleen pieces were transferred into labeled histocassettes and immersion-fixed in neutral buffered formalin (NBF) 10% (v/v) at room temperature (pH 6.8-7.2) (J.T. Baker, Medite, Switzerland). Fixative volume was at least tenfold in excess compared to tissue volume. […]
For histological evaluation, BM cellularity was evaluated as hypercellularity (3+), normocellularity (2+), and hypocellularity (1+). Splenic architecture was evaluated as destroyed (1+) or preserved (0). Presence of myeloid, erythroid and adipocytes cells was evaluated as 0, 1+, 2+, 3+ based on cellularity. […] Whole slide automated quantitative assessment of p-STAT5-positive and -negative cell nuclei were performed using Definiens eCognition software (eCognition version XD 1.5, Definiens AG, Germany). The results were expressed as percent of positive p-STAT5 nuclei out of total nuclei. Staining of acetylated histone H3 was scored as 1+, 2+, 3+ based on staining intensity and number of positive cells.

N#CC[C@H](C1CCCC1)n1cc(-c2ncnc3[nH]ccc23)cn1 [Compound A, (R)-3-(4-(7H-pyrrolo[2,3-d]pyrimidin-4-yl)-1H-pyrazol-1-yl)-3-cyclopentylpropanenitrile] was tested. Which “p-STAT5 PD marker (IHC)” value did it give?
The value was “clear reduction”.

Source: US20180085371A1, “COMBINATION OF PANOBINOSTAT AND RUXOLITINIB IN THE TREATMENT OF CANCER SUCH AS A MYELOPROLIFERATIVE NEOPLASM” (Novartis AG, priority 2011, published 2018)
